According to patent US20200247800A1, “SUBSTITUTED BICYCLIC HETEROCYCLIC COMPOUNDS AS NADPH OXIDASE INHIBITORS” (Glenmark Pharmaceuticals S.A., priority 2017, published 2020):

Biological target: T1, human NOX4 (Homo sapiens, UniProt Q9NPH5)
T1 construct: expressed in transfected cells; membrane fraction used
T1 sequence (Q9NPH5 1-578): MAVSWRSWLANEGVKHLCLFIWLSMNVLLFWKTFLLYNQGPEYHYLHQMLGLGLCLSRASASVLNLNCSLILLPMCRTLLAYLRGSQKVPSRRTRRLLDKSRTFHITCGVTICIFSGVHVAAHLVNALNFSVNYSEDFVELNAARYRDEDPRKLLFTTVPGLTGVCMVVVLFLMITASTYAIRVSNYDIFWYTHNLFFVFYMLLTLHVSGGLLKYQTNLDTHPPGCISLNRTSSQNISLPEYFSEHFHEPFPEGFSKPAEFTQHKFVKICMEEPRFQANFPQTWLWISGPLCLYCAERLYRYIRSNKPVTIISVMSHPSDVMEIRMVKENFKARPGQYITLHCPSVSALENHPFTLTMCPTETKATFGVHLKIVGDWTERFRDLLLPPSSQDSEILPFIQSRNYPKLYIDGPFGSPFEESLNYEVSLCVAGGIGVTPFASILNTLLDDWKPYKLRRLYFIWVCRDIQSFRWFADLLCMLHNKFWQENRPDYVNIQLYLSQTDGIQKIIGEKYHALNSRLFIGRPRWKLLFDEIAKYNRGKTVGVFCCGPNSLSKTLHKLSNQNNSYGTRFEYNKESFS
T1 sequence (P13498 1-195 partner): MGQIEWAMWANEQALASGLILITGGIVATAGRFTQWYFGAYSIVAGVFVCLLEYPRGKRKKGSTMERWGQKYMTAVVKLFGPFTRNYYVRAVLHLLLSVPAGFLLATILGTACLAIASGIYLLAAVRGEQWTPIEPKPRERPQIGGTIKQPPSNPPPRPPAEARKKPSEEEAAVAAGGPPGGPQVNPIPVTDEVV
Assay: Cell free membrane based in vitro NOX4 assay: H2O2 production by membranes expressing human NOX4, measured with Amplex Red
Type: biochemical
Conditions: for inhibition at 1 µM: 1.0 μM compound, read-out: Percentage inhibition at 1.0 μM; for inhibition at 10 µM: 10.0 μM compound, read-out: Percentage inhibition at 10.0 μM; for IC50: class symbols
Method in brief: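 IC50 came from concentration-response curves fitted as % of the inhibitor-free maximum. H2O2 formation was monitored for 10 min via Amplex Red/HRP fluorescence (544/590 nm) after NADPH start. Membranes from a stable hNOX4/HEK line had 20 min exposure to inhibitor beforehand at pH 7.4.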

Row | SMILES | inhibition at 1 µM | inhibition at 10 µM | IC50
1 | CCn1nc(C(F)(F)F)c2c(=O)c(O)c(-c3ccccc3Cl)[nH]c21 [Example 109, 6-(2-Chlorophenyl)-1-ethyl-5-hydroxy-3-(trifluoromethyl)-1H-pyrazolo[3,4-b]pyridin-4(7H)-one] | 60.5% | 82.1% | > 150 nM
2 | CCn1nc(C)c2c(=O)c(O)c(-c3ccccc3OC)[nH]c21 [Example 110, 1-Ethyl-5-hydroxy-6-(2-methoxyphenyl)-3-methyl-1H-pyrazolo[3,4-b]pyridin-4(7H)-one] | 60.5% | 63% | > 150 nM
3 | CC(C)Cn1nc(C(F)(F)F)c2c(=O)c(O)c(-c3c(F)cccc3F)[nH]c21 [Example 111, 6-(2,6-Difluorophenyl)-5-hydroxy-1-isobutyl-3-(trifluoromethyl)-1H-pyrazolo[3,4-b]pyridin-4(7H)-one] | 56.4% | 81.7% | > 150 nM
4 | CCn1nc(C)c2c(=O)c(O)c(-c3ccc(F)cc3)[nH]c21 [Example 112, 1-Ethyl-6-(4-fluorophenyl)-5-hydroxy-3-methyl-1,7-dihydro-4H-pyrazolo[3,4-b]pyridin-4-one] | 44.1% | – | –
5 | COc1ccc(-c2[nH]c3c(c(C)nn3C3CC3)c(=O)c2O)c(F)c1 [Example 114, 1-Cyclopropyl-6-(2-fluoro-4-methoxyphenyl)-5-hydroxy-3-methyl-1H-pyrazolo[3,4-b]pyridin-4(7H)-one] | 61% | 69.9% | > 150 nM
6 | CCn1nc(C)c2c(=O)c(O)c(-c3ccc(F)c(C(F)(F)F)c3F)[nH]c21 [Example 116, 6-(2,4-Difluoro-3-(trifluoromethyl)phenyl)-1-ethyl-5-hydroxy-3-methyl-1H-pyrazolo[3,4-b]pyridin-4(7H)-one] | 78.6% | 73% | > 150 nM
7 | Cn1nc(N2CCOCC2)c2c(=O)c(O)c(-c3c(F)cccc3F)[nH]c21 [Example 117, 6-(2,6-Difluorophenyl)-5-hydroxy-1-methyl-3-morpholino-1H-pyrazolo[3,4-b]pyridin-4(7H)-one] | 6.79% | 15.6% | –
8 | CCn1nc(C)c2c(=O)c(O)c(-c3ccc(N)cc3F)[nH]c21 [Example 119, 6-(4-Amino-2-fluorophenyl)-1-ethyl-5-hydroxy-3-methyl-1,7-dihydro-4H-pyrazolo[3,4-b]pyridin-4-one] | 66.9% | – | > 150 nM
9 | CCn1nc(C)c2c(=O)c(O)c(-c3ccc(OCCOC)cc3F)[nH]c21 [Example 120, 1-Ethyl-6-[2-fluoro-4-(2-methoxyethoxy)phenyl]-5-hydroxy-3-methyl-1,7-dihydro-4H-pyrazolo[3,4-b]pyridin-4-one] | 64.8% | – | > 150 nM
10 | CCn1nc(C)c2c(=O)c(O)c(-c3ccc(OCC4CC4)cc3F)[nH]c21 [Example 121, 6-[4-(Cyclopropylmethoxy)-2-fluorophenyl]-1-ethyl-5-hydroxy-3-methyl-1,7-dihydro-4H-pyrazolo[3,4-b]pyridin-4-one] | 70.2% | – | > 150 nM
11 | CCn1nc(CC(C)C)c2c(=O)c(O)c(-c3c(F)cccc3F)[nH]c21 [Example 122, 6-(2,6-Difluorophenyl)-1-ethyl-5-hydroxy-3-(2-methylpropyl)-1,7-dihydro-4H-pyrazolo[3,4-b]pyridin-4-one] | 72.7% | 75.4% | > 150 nM
12 | CCn1nc(C)c2c(=O)c(O)c(-c3c(F)cccc3Cl)[nH]c21 [Example 123, 6-(2-Chloro-6-fluorophenyl)-1-ethyl-5-hydroxy-3-methyl-1,7-dihydro-4H-pyrazolo[3,4-b]pyridin-4-one] | 75.5% | 76.2% | > 150 nM
13 | Cc1nn(C2CC2)c2[nH]c(-c3c(F)cccc3Cl)c(O)c(=O)c12 [Example 124, 6-(2-Chloro-6-fluorophenyl)-1-cyclopropyl-5-hydroxy-3-methyl-1,7-dihydro-4H-pyrazolo[3,4-b]pyridin-4-one] | 69.3% | 81.9% | > 150 nM
14 | Cc1nn(C2CC2)c2[nH]c(-c3ccccc3Cl)c(O)c(=O)c12 [Example 125, 6-(2-Chlorophenyl)-1-cyclopropyl-5-hydroxy-3-methyl-1,7-dihydro-4H-pyrazolo[3,4-b]pyridin-4-one] | 58.4% | 66.8% | –
15 | Cc1cc(F)ccc1-n1nc(C)c2c(=O)c(O)c(-c3ccccc3Cl)[nH]c21 [Example 126, 6-(2-Chlorophenyl)-1-(4-fluoro-2-methylphenyl)-5-hydroxy-3-methyl-1,7-dihydro-4H-pyrazolo[3,4-b]pyridin-4-one] | 63.4% | 76.3% | > 150 nM

More lines, now with the values ahead:

Row | inhibition at 1 µM | inhibition at 10 µM | IC50 | SMILES
16 | 69.7% | 88.6% | > 150 nM | CCn1cnc2c(=O)c(O)c(-c3c(F)cccc3F)[nH]c21 [Example 101, 5-(2,6-Difluorophenyl)-3-ethyl-6-hydroxy-3H-imidazo[4,5-b]pyridin-7(4H)-one]
17 | 86.2% | 91.5% | 50 to 100 nM | COCc1nn(C)c2[nH]c(-c3c(F)cccc3F)c(O)c(=O)c12 [Example 102, 6-(2,6-Difluorophenyl)-5-hydroxy-3-(methoxymethyl)-1-methyl-1H-pyrazolo[3,4-b]pyridin-4(7H)-one]
18 | 99.4% | 100% | < 50 nM | CCc1nn(CC)c2[nH]c(-c3c(F)cccc3F)c(O)c(=O)c12 [Example 103, 6-(2,6-Difluorophenyl)-1,3-diethyl-5-hydroxy-1,7-dihydro-4H-pyrazolo[3,4-b]pyridin-4-one]
19 | 99.8% | 96.9% | 100 to 150 nM | CCn1nc(C)c2c(=O)c(O)c(-c3cccc(C(F)(F)F)c3F)[nH]c21 [Example 104, 1-Ethyl-6-[2-fluoro-3-(trifluoromethyl)phenyl]-5-hydroxy-3-methyl-1,7-dihydro-4H-pyrazolo[3,4-b]pyridin-4-one]
20 | 99.1% | 100% | > 150 nM | CCn1ncc2c(=O)c(O)c(-c3c(F)cccc3F)[nH]c21 [Example 105, 6-(2,6-Difluorophenyl)-1-ethyl-5-hydroxy-1,7-dihydro-4H-pyrazolo[3,4-b]pyridin-4-one]
21 | 100% | 100% | 50 to 100 nM | Cc1n[nH]c2[nH]c(-c3c(F)cccc3F)c(O)c(=O)c12 [Example 106, 6-(2,6-Difluorophenyl)-5-hydroxy-3-methyl-1,7-dihydro-4H-pyrazolo[3,4-b]pyridin-4-one]
22 | 70.8% | 61.2% | > 150 nM | CCn1nc(C)c2c(=O)c(O)c(-c3ccccc3F)[nH]c21 [Example 107, 1-Ethyl-6-(2-fluorophenyl)-5-hydroxy-3-methyl-1,7-dihydro-4H-pyrazolo[3,4-b]pyridin-4-one]
23 | 70.7% | 77.9% | 50 to 100 nM | Cc1nn(CC(C)C)c2[nH]c(-c3c(F)cccc3F)c(O)c(=O)c12 [Example 108, 6-(2,6-Difluorophenyl)-5-hydroxy-1-isobutyl-3-methyl-1H-pyrazolo[3,4-b]pyridin-4(7H)-one]
24 | 91.3% | 92.3% | 50 to 100 nM | Cn1nc(-c2ccc(F)cc2)c2c(=O)c(O)c(-c3c(F)cccc3F)[nH]c21 [Example 113, 6-(2,6-Difluorophenyl)-3-(4-fluorophenyl)-5-hydroxy-1-methyl-1H-pyrazolo[3,4-b]pyridin-4(7H)-one]
25 | 76.7% | 80.8% | 100 to 150 nM | Cn1nc(Cc2ccccc2)c2c(=O)c(O)c(-c3c(F)cccc3F)[nH]c21 [Example 115, 3-Benzyl-6-(2,6-difluorophenyl)-5-hydroxy-1-methyl-1H-pyrazolo[3,4-b]pyridin-4(7H)-one]
26 | 78.8% | 77.5% | 50 to 100 nM | CCn1nc(C)c2c(=O)c(O)c(-c3c(F)cc(OC)cc3F)[nH]c21 [Example 118, 6-(2,6-Difluoro-4-methoxyphenyl)-1-ethyl-5-hydroxy-3-methyl-1H-pyrazolo[3,4-b]pyridin-4(7H)-one]
27 | 87.5% | 89.5% | < 50 nM | Cc1nn(C2CCCC2)c2[nH]c(-c3c(F)cccc3F)c(O)c(=O)c12 [Example 127, 1-Cyclopentyl-6-(2,6-difluorophenyl)-5-hydroxy-3-methyl-1,7-dihydro-4H-pyrazolo[3,4-b]pyridin-4-one]
